The values below come from paper PMC10893357 (Viruses, 2024).

Entries after “also recorded” stand apart in the source; their conditions may differ. Bounds are passed on as bounds.

For the first test, the target named is T1, SARS-CoV-2 3CL^pro (Severe acute respiratory syndrome coronavirus 2, UniProt P0DTD1). Nature of the test: SARS-CoV-2 3CLpro enzymatic inhibition assay (FRET peptide substrate). It counts as biochemical.
Settings: not given
`CC(=O)C1=C(O)C=C2Oc3c(C(C)=O)c(O)c(C)c(O)c3[C@@]2(C)C1=O` [(+)-1, (R)-(+)-Usnic acid, reference compound]: the IC50 is above 200 µM and the “activity against 3CLpro (in words)” value was “does not inhibit 3CL^pro”. Compound `CC(=O)C1=C(O)C=C2Oc3c(-c4csc(N/N=C/c5ccsc5)n4)c(O)c(C)c(O)c3[C@@]2(C)C1=O` [(+)-3a] displayed an IC50 of 51 ± 6.33 µM. For the compound `CC(=O)C1=C(O)C=C2Oc3c(-c4csc(N/N=C/c5cccs5)n4)c(O)c(C)c(O)c3[C@@]2(C)C1=O` [(+)-3b], the IC50 was 49.7 ± 6.12 µM. On the same count and under the same terms, the figure for `CC(=O)C1=C(O)C=C2Oc3c(-c4csc(N/N=C/c5sccc5C)n4)c(O)c(C)c(O)c3[C@@]2(C)C1=O` [(+)-3c] is 34 ± 4.45 µM. Consider `CC(=O)C1=C(O)C=C2Oc3c(-c4csc(N/N=C/c5ccc(C)s5)n4)c(O)c(C)c(O)c3[C@@]2(C)C1=O` [(+)-3d], for which inhibition was half-maximal at 40.7 ± 5.11 µM (IC50) and the “activity against 3CLpro (in words)” value is “moderately inhibited the protease”. The corresponding values for `CC(=O)C1=C(O)C=C2Oc3c(-c4csc(N/N=C/c5ccc(Br)s5)n4)c(O)c(C)c(O)c3[C@@]2(C)C1=O` [(+)-3e] are 28.2 ± 1.41 µM and “the highest but not strong activity”. As for `CC(=O)C1=C(O)C=C2Oc3c(-c4csc(N/N=C/c5cc(Br)cs5)n4)c(O)c(C)c(O)c3[C@@]2(C)C1=O` [(+)-3f], the midpoint of inhibition, the IC50, lay at 50.2 ± 6.75 µM. In the case of `CC(=O)C1=C(O)C=C2Oc3c(-c4csc(N/N=C/c5ccc([N+](=O)[O-])s5)n4)c(O)c(C)c(O)c3[C@@]2(C)C1=O` [(+)-3g], the IC50 is above 200 µM and the “activity against 3CLpro (in words)” value is “showed no activity at all; also recorded: did not show this activity”. `CC(=O)C1=C(O)C=C2Oc3c(C(C)=O)c(O)c(C)c(O)c3[C@]2(C)C1=O` [(−)-1, (S)-(−)-Usnic acid, reference compound] came in with a half-maximal inhibitory concentration (IC50) above 200 µM. Still for that read-out and setting: the figure for `CC(=O)C1=C(O)C=C2Oc3c(-c4csc(N/N=C/c5ccsc5)n4)c(O)c(C)c(O)c3[C@]2(C)C1=O` [(−)-3a] is 41.6 ± 4.97 µM; for `CC(=O)C1=C(O)C=C2Oc3c(-c4csc(N/N=C/c5cccs5)n4)c(O)c(C)c(O)c3[C@]2(C)C1=O` [(−)-3b] it is 40.4 ± 5.65 µM; for `CC(=O)C1=C(O)C=C2Oc3c(-c4csc(N/N=C/c5sccc5C)n4)c(O)c(C)c(O)c3[C@]2(C)C1=O` [(−)-3c] it is 48 ± 6.21 µM. Regarding `CC(=O)C1=C(O)C=C2Oc3c(-c4csc(N/N=C/c5ccc(C)s5)n4)c(O)c(C)c(O)c3[C@]2(C)C1=O` [(−)-3d], the IC50 was found to be 41 ± 5.89 µM and the “activity against 3CLpro (in words)” value was “moderately inhibited the protease”. For `CC(=O)C1=C(O)C=C2Oc3c(-c4csc(N/N=C/c5ccc(Br)s5)n4)c(O)c(C)c(O)c3[C@]2(C)C1=O` [(−)-3e] the same measures were 85.8 ± 10.1 µM and “almost three times less effectively”. For the compound `CC(=O)C1=C(O)C=C2Oc3c(-c4csc(N/N=C/c5cc(Br)cs5)n4)c(O)c(C)c(O)c3[C@]2(C)C1=O` [(−)-3f], inhibition was half-maximal at 72.8 ± 9.55 µM (IC50).

Regarding `CC(=O)C1=C(O)C=C2Oc3c(-c4csc(N/N=C/c5ccc([N+](=O)[O-])s5)n4)c(O)c(C)c(O)c3[C@]2(C)C1=O` [(−)-3g], the IC50 was above 200 µM and the “activity against 3CLpro (in words)” value is “showed no activity at all”.

A further test addresses T1, SARS-CoV-2 3CL^pro. As to the kind of experiment: Kinetic parameters of 3CLpro reaction with inhibitor. In kind it is biochemical. Particulars: maximum reaction rate of 3CLpro with inhibitor at its IC50.
In the case of `CC(=O)C1=C(O)C=C2Oc3c(-c4csc(N/N=C/c5ccc(Br)s5)n4)c(O)c(C)c(O)c3[C@@]2(C)C1=O` [(+)-3e], the Vmax was 334.26 ± 39.08 nM/s.

In general, IC50 refers to the concentration that inhibits the measured activity by half. Read a high IC50 as weaker potency in that assay. As usually defined, the Vmax is the top rate of the reaction or transport when substrate is in excess.
